# “Also recorded” adds a separate entry of the source.
# Key:
# [1] = tested on: PTZ-induced seizures in zebrafish larvae; assay: Zebrafish PTZ seizure model, behavioral analysis; format: in vivo, Danio rerio; settings: at MTC, 2 or 18 hours incubation (not specified per compound)
# Description: To investigate whether the isolated compounds display antiseizure activity, they were tested in the zebrafish PTZ seizure model after both an acute (2 hours) and chronic (18 hours) incubation time at their maximum tolerated concentration (MTC) (Table 1, FIG. 1).
# (§1) In case no MTC was reached, 100 μg/mL was used as the test concentration. In line with studies previously reported [Baraban et al. (2005) Neurosci 131, 759-768; Afrikanova et al. (2013) PLoS One 8, e54166], addition of the GABAA-receptor antagonist PTZ to the swimming water of 7 days post-fertilization (dpf) zebrafish larvae strongly elevated larval locomotion (p≤0.001) (FIGS. 2 and 3) as a result of induced seizures (or seizure-like behavior) that were recognized as typical high-speed swimming, whirlpool-like circling, clonus-like seizures, and loss of posture, as previously described in Baraban et al cited above.
# Experimental procedure was described in Afrikanova et al.(2013) PLoS One 8, e54166 and Orellana-Paucar et al. (2012) Epilepsy Behav 24, 14-22. In brief, a single 7 dpf larva (in case of 2 hours incubation) or 6 dpf larva (in case of 18 hours incubation) was placed in each well of a 96-well plate and treated with either VHC (1% DMSO) or compound (1% DMSO) in a 100 μL volume. Larvae were incubated in dark for 2 or 18 hours at 28° C., whereafter 100 μL of either VHC (embryo medium) or 40 mM PTZ (dissolved in embryo medium, 20 mM working concentration) was added to each well. Next, within 5 min the 96-well plate was placed in an automated tracking device (ZebraBox Viewpoint, France) and larval behavior was video recorded for 30 min. The complete procedure was performed in dark conditions using infrared light. Total locomotor activity was recorded by ZebraLab software (Viewpoint, France) and expressed in actinteg units, which is the sum of pixel changes detected during the defined time interval (5 min). Larval behavior was depicted as mean actinteg units/5 min during the 30 min recording period and over 5 min time intervals. Data are expressed as mean±SD or as mean ±SEM when the means of independent experiments were pooled.
# [2] = tested on: zebrafish larvae; assay: Zebrafish toxicity evaluation (maximum tolerated concentration); format: in vivo, Danio rerio; settings: up to 18 hours exposure, 100 μg/mL used where no MTC was reached
# Description: as §1
# Maximum tolerated concentration (MTC) was determined prior to further experiments and used as the highest test concentration. MTC was investigated by exposing 12 larvae of 6 days post-fertilization (dpf) to a range of concentrations in a 100 μL volume during 18 hours. The following parameters were investigated after 2 and 18 hours of exposure: touch response, morphology, posture, edema, signs of necrosis, swim bladder, and heartbeat. […] In case MTC was not reached, 100 μg/mL was used as the highest test concentration.
# [3] = tested on: NMRI mice; assay: Mouse 6-Hz (44 mA) psychomotor seizure model; format: in vivo
# Description: Although the zebrafish model has a high degree of genetic, physiological and pharmacological conservation^13, it is more distinct from humans than mammals. Therefore, we were interested to see if the observed antiseizure properties of azaspirofuran A and pseurotin A2 would translate to a rodent model. The mouse 6-Hz (44 mA) psychomotor seizure model was chosen, because it can detect compounds with novel antiseizure mechanisms and with potential against drug-resistant seizures [Barton et al. (2001) Epilepsy Res 47, 217-227; Wilcox et al. (2013) Epilepsia 54 S4, 24-34]. In this model drug-resistant focal impaired awareness seizures [Fisher et al. (2017) Epilepsia 58, 531-542], previously referred to as complex partial or psychomotor seizures [Holcomb and Dean (2011) Psychomotor Seizures, In Encyclopedia of Child Behavior and Development (Goldstein, S., and Naglieri, J. A., Eds.), pp 1191-1192, Springer US, Boston, Mass.], are induced by low frequency, long duration corneal electrical stimulation (6 Hz, 0.2 ms rectangular pulse width, 3 s duration, 44 mA) and are characterized by stun, twitching of the vibrissae, forelimb clonus, and Straub tail. […] Stimulated mice with a seizure duration shorter than 27 seconds were thus considered to be protected. […] Besides, this study provides another example of the translation of results from zebrafish to rodent seizure models.
# Experimental procedure was described in Copmans et al. (2018) Neurochem. Int. 112, 124-133. before Buenafe et al. cited above; Orellana-Paucar cited above. In brief, NMRI mice (average weight 28 g, range 23-32 g) were randomly divided into control and treatment groups (n=5-10). 50 μL (injection volume was adjusted to the individual weight) of VHC (PEG200:DMSO:water; 0.25:0.25:0.5) or treatment (an ASD or test compound dissolved in VHC) was i.p. injected in mice and after 30 or 120 (in case of phenytoin, as reported by Barton et al. cited above) min psychomotor seizures were induced by low frequency, long duration corneal electrical stimulation (6 Hz, 0.2 ms rectangular pulse width, 3 s duration, 44 mA) using an ECT Unit 5780 (Ugo Basile, Comerio, Italy). Mice were manually restrained and a drop of ocular anesthetic (0.5% lidocaine) was applied to the corneas before stimulation. Following electrical current stimulation, the mouse was released in a transparent cage for behavioral observation, which was video-recorded. […] In addition, facial and mouth jerking as well as head nodding were observed occasionally. Mice displaying normal exploratory and locomotion behavior within a time period of 26 seconds were considered to be protected against the induced psychomotor seizures. Seizure durations were measured during the experiment by experienced researchers, familiar with the different seizure behaviors. In addition, seizure durations were determined by blinded video analysis to confirm or correct the initial observations. Data are expressed as mean±SD.
# [4] = tested on: PTZ-induced epileptiform brain activity in zebrafish larvae; assay: Zebrafish PTZ seizure model, local field potential recordings (electrophysiology); format: in vivo, Danio rerio; settings: vs VHC+PTZ
# Description: To determine whether azaspirofuran A and pseurotin A2 can ameliorate the PTZ-induced hyperexcitable state of the brain that is characterized by epileptiform discharges, local field potential (LFP) recordings were non-invasively measured from the midbrain (optic tectum) of zebrafish larvae [Zdebik et al. (2013) PLoS One 8, e79765; Britton et al. (2016) In Electroencephalography (EEG): An Introductory Text and Atlas of Normal and Abnormal Findings in Adults, Children, and Infants (St. Louis and Frey, Eds.), Chicago]. To that end larvae were treated with either VHC or test compound (MTC and optimal incubation time were used) followed by a 15 min during exposure to PTZ or VHC prior to the electrophysiology measurements (FIG. 4). […] Thus, both compounds not only ameliorate PTZ-induced seizures but are likely to do so by lowering the PTZ-induced hyperexcitable state of the brain.
# Experimental procedure was described before [Zdebik et al. (2013) PLoS One 8, e79765; Sourbron et al. (2017) Front. Pharmac. 8, 191; Copmans et al. (2018) Neurochem. Int. 112, 124-133.]. Non-invasive LFP recordings were measured from the midbrain (optic tectum) of 7 dpf zebrafish larvae pre-incubated with VHC only, PTZ only, compound and VHC, or compound and PTZ. Larvae were incubated for approximately 2 or 18 hours with VHC (1% DMSO) or compound (1% DMSO) in a 100 μL volume. After incubation, 100 μL of VHC (embryo medium) or 40 mM PTZ (dissolved in embryo medium, 20 mM working concentration) was added to the well for 15 min prior to recording. These steps occurred at 28° C., while further manipulation and electrophysiological recordings occurred at room temperature (21° C.). The larva was embedded in 2% low melting point agarose (Invitrogen) and the signal electrode (an electrode inside a soda-glass pipet (1412227, Hilgenberg) pulled with a DMZ Universal Puller (Zeitz, Germany), diameter±20 microns, containing artificial cerebrospinal fluid (ACSF: 124 mM NaCl, 10 mM glucose, 2 mM KCl, 2 mM MgSO4, 2 mM CaCl2, 1.25 mM KH2PO4, and 26 mM NaHCO3, 300-310 mOsmols)) was positioned on the skin covering the optic tectum. A differential extracellular amplifier (DAGAN, USA) amplified the voltage difference between the signal (measured by the signal electrode) and the reference electrode. The differential signal was band pass filtered at 0.3-300 Hz and digitized at 2 kHz via a PCI-6251 interface (National instruments, UK) using WinEDR (John Dempster, University of Strathclyde, UK). A grounding electrode grounded the electrical system. All electrodes were connected with ACSF. Each recording lasted 600 seconds. Manual analysis was completed by quantification of the number, cumulative duration, and mean duration of epileptiform-like events with Clampfit 10.2 software (Molecular Devices Corporation, USA). An electrical discharge was considered epileptiform if it was a poly-spiking event comprising at least 3 spikes with a minimum amplitude of three times the baseline amplitude and a duration of at least 100 milliseconds. Data are expressed as mean±SD for the number and cumulative duration of epileptiform events and as mean±SEM for the mean duration of events.
# [5] = MTC and optimal incubation time, 10 min recording
Compound,PTZ-induced seizures (seizure-like behavior) [1],MTC (maximum tolerated concentration) [2] [µg/mL],further results
11-O-methylpseurotin A,less pronounce reduction in PTZ-induced seizures,100,PTZ-induced seizures (seizure-like behavior) ([1]; listed as 11-Omethylpseurotin A): not active
CC/C=C\C(OC(=O)c1ccccc1N)C(O)C1=C(C)C(=O)C2(O1)C(=O)NC(OC)(C(=O)c1ccccc1)C2O (centres unmarked) [11-anthranilyl-Pseurotin A],less pronounce reduction in PTZ-induced seizures,100,
CCc1ccc(C2=C(C)C(=O)[C@]3(O2)C(=O)N[C@@](O)(C(=O)c2ccccc2)[C@@H]3O)o1 [azaspirofuran B],,12.5,
"O=C1NC(=O)C(c2ccccc2)(c2ccccc2)N1 [phenytoin, reference compound]",,,"response of seizures ([3]; 10 mg/kg i.p., 120 min before electrical stimulation): limited non-significant response"
CC/C=C\[C@H](O)[C@H](O)C1=C(C)C(=O)[C@]2(O1)C(=O)N[C@@](OC)(C(=O)c1ccccc1)[C@@H]2O [pseurotin A],not active,100,"mean duration of epileptiform events ([4]; 100 μg/mL, 18 hours): significantly lower the mean duration; cumulative duration of epileptiform events [4, 5]: non-significantly lower; number of epileptiform events [4, 5]: non-significantly lower"
CCC(O)C=C[C@H](O)C1=C(C)C(=O)[C@]2(O1)C(=O)N[C@@](OC)(C(=O)c1ccccc1)[C@@H]2O (some centres unmarked) [pseurotin D],less pronounce reduction in PTZ-induced seizures; also recorded: not active,100,
CC/C=C\[C@H](O)[C@H](O)C1=C(C)C(=O)[C@]2(O1)C(=O)N[C@](O)(C(=O)c1ccccc1)[C@@H]2O [pseurotin F1],less pronounce reduction in PTZ-induced seizures,50,
"CCCC(CCC)C(=O)O [valproate, reference compound]",,,"mean seizure duration ([3]; 300 mg/kg i.p., 30 min before electrical stimulation): 4 s"

# From patent US20200253929A1, “TREATMENT OF EPILEPSY” (priority 2017, published 2020)
